Assay results taken from patent US20100247489A1, “USE OF A COMPOSITION MADE OF MINERAL NUTRIENTS AND OPTIONALLY ACETOGENIC AND/OR BUTYROGENIC BACTERIA IN ORDER TO AVOID OR REDUCE THE FORMATION OF GAS IN THE LARGE INTESTINE OF A MAMMAL AND THE RESULTING ABDOMINAL PROBLEMS” (priority 2006, published 2010).

Experiments:
[1] = test system: Feces samples from 20 persons; assay: Incubation of homogenized feces samples with fructose and minerals, gas-meter (Example 3); parameters: species or system human; conditions: 1 g fructose per 100 g of feces; for reduction in the amount of gas, in words: 20 feces samples; for amounts of gas: incubated at 37°, control 150 ml
Protocol: The incubation containers were all added with 1 g fructose per 100 g of feces, and additionally with 1. Selenium 20 μg; 2. 40 μg tungsten, 3. […] 20 μg Selenium plus 40 μg molybdenum; 6. 40 μg Selenium plus 20 μg tungsten plus 1 drop multivitamin solution “Multibionta”, 7. 40 μg Selenium plus 20 μg tungsten plus 1 drop multivitamin solution “Multibionta” plus 1 mg of iron plus 20 μg nickel. A control tank was added only with fructose.
The incubation containers were fitted with a gas-meter, sealed gas-tight and incubated at 37°.

meteorism = assay: Person with meteorism after fiber-rich meals (Examples 15 and 16); type: in vivo, human; conditions: 1.5 mg three times daily in water, after one week of treatment
Protocol: A person who suffers from meteorism after eating fiber-rich meals is treated three times daily with 1.5 mg of sodium tungstate, which is dissolved in water administered with the drinking fluid during the main meals.
A person who suffers from meteorism after eating fiber-rich meals is treated three times daily with 1.5 mg of sodium tungstate, which is dissolved in 100 ml water with the addition of 100 mg phytic acid and is allowed to rest for 30 minutes, and is administered to the main meals with the drinking fluid.

Compound | reduction in the amount of gas, in words [1] | amounts of gas [1] | meteorism (meteorism)
Selenium | significant gas reduction | 110 mL | –
[W] [W, tungsten] | significant gas reduction | 100 mL | –
[Na+].[Na+].[O]=[W](=[O])([O-])[O-] [sodium tungstate] | – | – | significantly decreases
